Assay results reported in patent publication US11639384B2, “Treatment of pediatric BCP-ALL patients with an anti-KIR antibody” (UNIVERSITY CHILDREN'S HOSPITAL TÜBINGEN, priority 2014, dated 2023).
Entries after “also recorded” stand apart in the source; their conditions may differ. Like-named read-outs stand apart in the source and are kept apart here.

Assays:
[1] = system: KIR2DL2/3; assay: KIR receptor occupancy on cells from KIR2DL2/3+ patients; format: in vivo, human
[2] = system: AML; assay: Phase 1 overall survival of AML patients; format: in vivo, human; settings: 1 and 3 mg/kg
[3] = system: KIR receptor; settings: cited from earlier work
[4] = system: AML; settings: cited from earlier work
[5] = system: HLA-Cw3+ and HLA-Cw4+ targets; settings: cited from earlier work
[6] = system: KIR2DL1 and KIR2DL2/3; settings: literature and WO 2006/003179; cited from earlier work
[7] = target: KIR2DS4 (Homo sapiens, UniProt P43632); settings: cited from earlier work
Sequence of KIR2DS4 (P43632 22-304): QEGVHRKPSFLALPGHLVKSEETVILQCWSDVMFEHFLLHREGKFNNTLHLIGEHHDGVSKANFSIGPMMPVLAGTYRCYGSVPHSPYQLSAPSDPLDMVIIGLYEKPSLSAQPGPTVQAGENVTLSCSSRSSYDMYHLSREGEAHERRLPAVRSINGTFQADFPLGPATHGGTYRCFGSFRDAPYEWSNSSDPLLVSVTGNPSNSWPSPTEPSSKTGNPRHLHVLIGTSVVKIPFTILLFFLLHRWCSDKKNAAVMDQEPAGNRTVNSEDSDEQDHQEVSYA

[8] = target: KIR2DS3 (Homo sapiens, UniProt Q14952); settings: cited from earlier work
Sequence of KIR2DS3 (Q14952 22-304): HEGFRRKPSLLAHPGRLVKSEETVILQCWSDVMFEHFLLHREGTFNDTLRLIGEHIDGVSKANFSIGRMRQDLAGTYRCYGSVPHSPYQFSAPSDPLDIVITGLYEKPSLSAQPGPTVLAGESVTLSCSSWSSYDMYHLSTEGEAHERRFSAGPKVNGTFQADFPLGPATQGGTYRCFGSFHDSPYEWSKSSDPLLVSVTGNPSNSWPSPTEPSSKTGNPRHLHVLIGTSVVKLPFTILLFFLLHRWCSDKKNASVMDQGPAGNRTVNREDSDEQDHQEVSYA

[9] = system: KIR2DS1 and KIR2DS2; settings: cited from earlier work
[10] = system: KIR2DL2/3; settings: cited from earlier work
[11] = WO 2006/003179; cited from earlier work
[12] = system: CD45+ cells; assay: In vivo treatment with 5-aza-cytidine: BM cytotoxicity; settings: low-dose, long-term treatment; huNSG and non-humanized control mice
[13] = system: BM-derived NK cells; assay: In vivo treatment with 5-aza-cytidine: NK cell phenotype and subsets in BM; parameters: species or system huNSG mice
[14] = Troetel et al., 1972; cited from earlier work
[15] = system: pediatric BCP-ALL; assay: In vivo treatment with 5-aza-cytidine: leukemic burden in BM; settings: non-humanized control NSG mice, low-dose regimen
[16] = system: KIR2DL1 and KIR2DL2/3; assay: KIR binding specificity of anti-KIR mAbs: inhibitory KIR2DL; parameters: species or system human
[17] = system: NALM-16 cells; assay: In vitro cytotoxicity of sorted KIR+ NKAES cells with KIR blockade; format: cell-based; settings: 15 μg/ml, NALM-16, E:T ratio 2:1
Experimental: Target cells or cell lines were labeled with 0.5 μM CFSE (Vybrant CFDA SE Cell Tracer Kit®, Invitrogen, Germany) 1 day prior to use. NKAES cells were thawed, cultivated overnight and subsequently sorted into KIR^+ and KIR^− subsets following labeling with anti-CD158a (clone HP3E4 recognizing KIR2DL1/S1/S4), anti-CD158b (clone GL183 recognizing KIR2DL2/S2/L3) and anti-CD158e (clone DX9 recognizing 3DL1). KIR^+ and KIR^− NK cells were used as effector cells and cultured overnight in the presence of 100 IU/ml IL2. Co-incubation with NALM-16 cells was performed in triplicates at ratios between 10:1 and 2:1 for 5 h. Following staining with ARD-Ax350, cells were washed and analyzed. To correct for spontaneously occurring cell death, target cell monoculture controls were included in every experiment. The percentage of specific cytotoxicity was calculated as follows: (% CFSE^+ARD^+ dead targets−% CFSE^+ARD^+ spontaneously dead targets)/(100−% CFSE^+ ARD^+ spontaneously dead targets)×100%.
In vitro cytotoxicity was assayed as described in Example 1. […] Following staining with ARD-Ax350, cells were washed and analyzed.

[18] = system: inhibitory KIR; assay: Lirilumab treatment of huNSG mice: inhibitory KIR expression; format: in vivo; settings: 250 μg/mouse, preliminary data
Experimental: HuNSG mice were treated 14 days before the injection of leukemia cells with a complex of IL15/IL15Ra. One day prior to blasts injection, NK cells were additionally activated by intravenous injection of polyI:C and IPH2102. On the following day blasts were injected, and after 24 h the extent of tumor burden was quantified using 8-11 color flow cytometry.

[19] = system: BCP-ALL sample P23T; assay: Lirilumab in NSG mice with adoptively transferred KIR-KIRL-matched NK cells: tumor burden; format: in vivo; settings: P23T blasts, KIR-KIRL-matched activated NK cells, 2250 μg/mouse i.v., 24 h, preliminary data
Experimental: Naïve NSG mice were injected with blasts, followed by the injection of activated NK cells and subsequent intravenous injection of IPH2102 (2250 μg/mouse). Mice were euthanized after 24 h to quantify tumor burden. […] Data depicted in FIGS. 13B and D represent preliminary data performed in a small number of mice. The data provided in Examples 1-4 support the concept that NK cell immune-therapy, ideally performed with KIR-KIRL-mismatched donors, should have a role in the treatment of pediatric BCP-ALL disease.

1-7F9: KIR2DL-cross-reactive fully human IgG4 kappa mAb; H chain SEQ ID NO:3, L chain SEQ ID NO:5
receptor occupancy ([1]; 0.2 mg/kg and 2 mg/kg, 28-day period): good receptor occupancy throughout the 28-day period
improvement of OS versus <0.3 mg/kg group [2]: ~18 months
duration of full (>90%) KIR receptor occupancy ([3]; 0.075 mg/kg): 1 week
duration of full (>90%) KIR receptor occupancy ([3]; 1 mg/kg): 2 weeks
duration of KIR saturation (>30% KIR occupancy) ([3]; 3 mg/kg): 24-32 weeks
duration of full (>90%) KIR receptor occupancy ([3]; 3 mg/kg): at least 4 weeks
overall survival (OS) ([4]; 6 AML patients, dosages of 1 and 3 mg/kg): 29.7 months
overall survival (OS) ([4]; 16 AML patients, <0.3 mg/kg): 11.8 months
reconstitution of cell lysis by NK cells against Cw4-positive targets ([5]; WO 2005/003168, Example 4): almost completely reconstitutes lysis
potentiation of NK cell cytolytic activity on HLA-Cw3+ and HLA-Cw4+ targets ([5]; WO 2005/003168): strongly potentiate NK cell cytolytic activity
KIRs bound / recognized [6]: binds specifically to both KIR2DL1 and KIR2DL2/3
binding to KIR2DS4 [7]: does not bind to the stimulatory KIR, KIR2DS4; also recorded: none of 1-7F9, lirilumab and 1-4F1 binds to KIR2DS4
binding to KIR2DS3 [8]: does not bind to the stimulatory KIR, KIR2DS3
binding to KIR2DS1 and KIR2DS2 [9]: bind to KIR2DS1 and KIR2DS2
blocking of binding of group 1 HLA-C (HLA-Cw3) to KIR2DL2/3 [10]: blocks
IgG4 half-molecule formation [11]: did not reveal half-molecule formation

Nc1ncn([C@@H]2O[C@H](CO)[C@@H](O)[C@H]2O)c(=O)n1 [5-aza-cytidine]
BM cytotoxicity: human and murine CD45+ cells [12]: statistically insignificant reduction; also recorded: does not exert statistically relevant BM cytotoxicity
expression of inhibitory (KIRs, NKG2A) and activating (NKp44, NKG2D) NK cell receptors ([13]; BM-derived NK cells of huNSG mice, low doses): did not significantly modulate the expression; also recorded: does not significantly alter the expression
numbers of immature NK cell precursors and mature NK cell subsets in BM ([13]; huNSG mice, low-dose long-term treatment): distinctly higher numbers of both immature and mature NK cell subsets; also recorded: clearly higher numbers; also recorded: induces the expression of BM-residing NK cell precursors
half-life [14]: less than 4 h
direct cytotoxic effect on pediatric BCP-ALL [15]: largely excluded; also recorded: does not exert relevant direct cytotoxic effects

lirilumab: 1-7F9(S241P) variant, human IgG4 anti-KIR2DL1/2/3 mAb; H chain SEQ ID NO:4, L chain SEQ ID NO:5
KIR receptor occupancy ([1]; 1 mg/kg, over a 28-day period): ~100%
effect of S241P mutation on affinity for KIR2DL1 and KIR2DL2/3 [16]: equalizes the affinity for KIR2DL1 and KIR2DL2/3
specificity and affinity of binding to KIR targets ([16]; inferred from identical CDRs and variable regions): the same as that exhibited by 1-7F9
effect on cytotoxicity of KIR+ NK cells of KIR-KIRL-matched donors [17]: distinctly enhanced
effect on cytotoxicity of KIR+ NK cells of KIR-KIRL-mismatched donors [17]: did not respond to inhibitory KIR blockade
levels of inhibitory KIR expression [18]: very low levels; also recorded: barely detectable levels
levels of inhibitory KIR expression ([18]; listed as lirilumab (IPH2102)): negligible
tumor burden [19]: significant reduction of tumor burden
binding to KIR2DS4 [7]: none of 1-7F9, lirilumab and 1-4F1 binds to KIR2DS4
binding to KIR2DS1 and KIR2DS2 [9]: bind to KIR2DS1 and KIR2DS2
